The text below walks through data of patent publication US7323319B2, “RNA containing coenzymes, biotin, or fluorophores, and methods for their preparation and use” (The University of Southern Mississippi, priority 2003, dated 2008).

Where two headings read alike, the source gives them in different places.

Data set [1] concerns the target T1, T7 RNA polymerase (Escherichia phage T7, UniProt P00573). Format: biochemical. The following applies: for effect of 3′ blocked adenosine derivatives on normal RNA transcription and on CoA-RNA transcription: 4 mM, without coenzymes or in the presence of 4 mM De-P-CoA; for relative CoA-RNA yield / total RNA yield relative to RNA obtained at 1 mM ATP and 0 mM De-P-CoA: 4 mM De-P-CoA. From the text: To physically separate CoA-RNA from pppRNA by PAGE, a different RNA sequence of 35 nucleotides was designed to allow a specific DNazyme (Santoro, S. W. and Joyce, G. F., Proc. Natl. Acad. Sci. USA 94: 4262-4266 (1997)) cleavage after transcription. Two DNA oligonucleotides with the sequence of 5′-[…]-3′ (SEQ ID NO:2) and 5′-[…]-3′ (SEQ ID NO:3) were used to construct (by PCR) a DNA duplex template, from which a 35 nt RNA sequence of 5′-[…]-3′ (SEQ ID NO:4) was transcribed. A DNazyme (with the sequence of 5′-[…]-3′; SEQ ID NO:5) was then used to specifically cleave off a portion of the 3′ heterogeneous ends of both CoA-RNA and pppRNA, yielding a homogeneous length of 25 nt CoA-RNA and pppRNA. Similar transcription conditions were used with the exception of different concentrations of ATP. Transcribed RNA (about […]) was incubated with […] DNazyme for 60 minutes at 37° C. in 50 mM MgCl2 and 50 mM Tris, pH 8.0. RNA was then analyzed by 12% denaturing PAGE.
(§1) After polyacrylamide gel electrophoresis, individual RNA bands were visualized through phosphorimaging (Molecular Imager, Bio-Rad Laboratories, Hercules, Calif.). Quantitation of different RNA bands was achieved through profile integration after horizontal background subtraction. Coenzyme-RNA (CoE-RNA) yields were calculated based on relative intensity of pppRNA bands (N, N+1, and N+2 bands) in the absence of coenzymes. To confirm the validity of the calculation, DNazyme-cleaved pppRNA and CoA-RNA were quantitated directly after gel resolution of CoA-RNA from pppRNA. In addition, CoA-RNA yield was determined independently by thiopropyl Sepharose 6B affinity chromatography based on its free sulfhydryl group.
To physically resolve coenzyme-RNA from pppRNA by gel, a DNazyme (Santoro, S. W., and Joyce, G. F., Proc. Natl. Acad. Sci. USA, 94: 4262-4266 (1997)) was designed to trim off the 3′ heterogeneous ends of RNA.

Data set [2] addresses T1, T7 RNA polymerase. The data set is described as follows: Coenzyme-initiated in vitro transcription of CoES7 RNA under T7 class II promoter, PAGE and phosphorimaging. Format: biochemical. The following applies: for relative intensity of N band RNA / relative intensity of N+1 band RNA / relative intensity of N+2 band RNA: 4 mM coenzyme, 1 mM each NTP, CoES7 RNA, 2 hours 37° C.; for total RNA yields versus standard transcription conditions: higher than 8 mM coenzyme. The method, then: Transcription promoter sequence was derived from the T7 class II promoter (φ2.5) (FIG. 1) (Dunn, J. J., and Studier, F. W., J. Mol. Biol. 166: 477-535 (1983)). The RNA sequence was from a previously isolated coenzyme-synthesizing ribozyme (Huang, F., et al., Biochemistry 39: 15548-15555 (2000)), CoES7, with the sequence of 5′-[…]-3′ (SEQ ID NO:1). Transcription was carried out under the following standard conditions: 1 mM each of ATP, UTP, GTP, and CTP, 40 mM Tris (pH 8.0), 6 mM MgCl2, 2 mM spermidine, 0.01% Triton X-100, 5 mM DTT, 0.2 unit/mL RNase inhibitor, […] DNA templates, and 5 unit/mL T7 RNA polymerase. In addition, different concentrations of coenzymes, De-P-CoA, NAD, and FAD were included to initiate transcription. For quantitation purposes, [α-^32P]ATP (NEN Life Science, Boston, Mass.) was also added to transcription solutions to internally label RNA transcripts. All transcription reactions were allowed to proceed for 2 hours at 37° C. before product analysis by 8% denaturing PAGE.
Transcription of CoES7 RNA was carried out under the standard conditions, with the addition of various concentrations of coenzymes. After fractionation by PAGE, different RNA bands became clearly visible. In the absence of any coenzymes (lane 1), transcription produced three pppRNA bands in decreasing order: the full-length RNA transcripts (N band), N+1, and N+2 bands (with one and two extra nucleotides added at the 3′ end of full-length RNA). Their relative yields were 59%, 35%, and 6% (from N to N+2), respectively. When one of the three coenzymes, De-P-CoA, NAD, and FAD, was added to the transcription solution (lanes 2-4), no additional RNA bands were generated. However, the relative intensity of the three RNA bands in each lane changed considerably when compared with that of lane 1. […] In the presence of 4 mM De-P-CoA (lane 2), the relative intensity of the three bands changed to 40%, 45%, and 15% (from N to N+2). The relative RNA band intensity were 30%, 49%, and 21% for both NAD- and FAD-initiated transcription (lanes 3 and 4). These changes in RNA band relative intensity resulted from the incorporation of coenzymes (De-P-CoA, NAD, and FAD) into RNA. When one of these coenzymes is incorporated to the 5′ end of RNA, the coenzyme-linked RNA (CoE-RNA) behaves as if an extra normal nucleotide is added to the pppRNA. Therefore, the N band CoE-RNA co-migrates with the N+1 band pppRNA, while the N+1 band CoE-RNA and the N+2 band pppRNA run together in the gel. The N+2 band CoE-RNA was barely visible because of its low intensity. To confirm the incorporation of coenzymes into RNA under the class II promoter, three independent experiments were performed: resolution of CoA-RNA from pppRNA by gel after DNazyme cleavage, measurement of free sulfhydryl group of CoA-RNA, and fluorescence emission spectrum of FAD-RNA.

In data set [3] the target is T1, T7 RNA polymerase. The following applies: CoES7 RNA prepared under 1 mM ATP and 4 mM De-P-CoA. The method, then: as §1
Data set [4] in a line: Fluorescence emission spectra of FAD-RNA and free FAD. The format is physicochemical. The settings on record: 0.5 M sodium acetate, pH 5.2.
[5] abbreviates: different coenzyme concentrations (De-P-CoA: low concentrations; FAD: especially >4 mM), FIGS. 4A-4C.
[6] abbreviates: 0.2-0.5 mM ATP and 4 mM De-P-CoA.

T1 sequence (P00573 whole entry): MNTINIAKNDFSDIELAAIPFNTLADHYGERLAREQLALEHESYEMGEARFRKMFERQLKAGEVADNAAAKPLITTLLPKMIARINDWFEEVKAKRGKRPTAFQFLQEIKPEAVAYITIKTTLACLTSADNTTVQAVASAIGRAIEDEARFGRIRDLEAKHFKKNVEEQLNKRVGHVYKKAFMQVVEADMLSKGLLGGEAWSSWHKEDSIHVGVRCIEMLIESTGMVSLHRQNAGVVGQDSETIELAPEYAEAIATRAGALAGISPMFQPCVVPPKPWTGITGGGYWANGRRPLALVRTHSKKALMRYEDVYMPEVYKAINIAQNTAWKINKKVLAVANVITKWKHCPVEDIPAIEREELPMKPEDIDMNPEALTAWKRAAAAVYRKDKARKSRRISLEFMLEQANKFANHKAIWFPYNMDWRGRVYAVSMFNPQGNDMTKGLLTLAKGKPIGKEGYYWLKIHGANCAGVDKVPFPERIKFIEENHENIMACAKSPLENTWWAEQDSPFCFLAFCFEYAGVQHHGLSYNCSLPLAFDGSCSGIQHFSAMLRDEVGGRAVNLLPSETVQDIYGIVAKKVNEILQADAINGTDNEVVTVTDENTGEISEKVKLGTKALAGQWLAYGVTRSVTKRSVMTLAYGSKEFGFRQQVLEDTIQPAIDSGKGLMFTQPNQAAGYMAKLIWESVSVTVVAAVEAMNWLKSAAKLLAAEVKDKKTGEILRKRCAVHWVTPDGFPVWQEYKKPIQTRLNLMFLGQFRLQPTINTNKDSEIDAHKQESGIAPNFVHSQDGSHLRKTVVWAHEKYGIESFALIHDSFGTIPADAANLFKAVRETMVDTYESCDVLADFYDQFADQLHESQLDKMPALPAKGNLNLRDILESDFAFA

Turning to `Nc1ncnc2c1ncn2[C@@H]1O[C@H](CO)[C@@H](OP(=O)(O)O)[C@H]1O` [3′ AMP], the “effect of 3′ blocked adenosine derivatives on normal RNA transcription and on CoA-RNA transcription” value in data set [1] is on record as “neither CoA nor 3′ AMP has detectable effect”.
As to `CC(C)(COP(=O)(O)OP(=O)(O)OC[C@H]1O[C@@H](n2cnc3c(N)ncnc32)[C@H](O)[C@@H]1OP(=O)(O)O)[C@@H](O)C(=O)NCCC(=O)NCCS` [CoA, coenzyme A], the “effect of 3′ blocked adenosine derivatives on normal RNA transcription and on CoA-RNA transcription” value in data set [1] was “neither CoA nor 3′ AMP has detectable effect”.
Consider `CC(C)(COP(=O)(O)OP(=O)(O)OC[C@H]1O[C@@H](n2cnc3c(N)ncnc32)[C@H](O)[C@@H]1O)[C@@H](O)C(=O)NCCC(=O)NCCS` [De-P-CoA, 3′-Dephospho coenzyme A], for which, in data set [2], the “relative intensity of N band RNA” value was 40%, the “relative intensity of N+1 band RNA” value is 45%, the “relative intensity of N+2 band RNA” value was 15% and the “total RNA yields versus standard transcription conditions” value is “significantly lower”. The “coenzyme-RNA (CoE-RNA) yield over total RNA synthesized” value in data set [2] (4-8 mM coenzyme, standard transcription conditions) is 30-35%. Besides, the “effect on total RNA yield (transcription)” value (shortened to “effect on total RNA yield”) in data set [2] (setting [5]) is “stimulates transcription to some extent”. Also, the “effect on total RNA yield” value in data set [2] (higher concentrations of De-P-CoA) was “eventually becomes inhibitory”. In addition, in data set [1] (0.1 mM ATP), the “relative CoA-RNA yield” value is reported as 56%; the “total RNA yield relative to RNA obtained at 1 mM ATP and 0 mM De-P-CoA” value is 12%. Moreover, in data set [1] (0.2 mM ATP), the “relative CoA-RNA yield” value amounted to 52%; the “total RNA yield relative to RNA obtained at 1 mM ATP and 0 mM De-P-CoA” value turned out to be 44%. In data set [1] (0.5 mM ATP), the “relative CoA-RNA yield” value is reported as 46%; the “total RNA yield relative to RNA obtained at 1 mM ATP and 0 mM De-P-CoA” value was 85%. Besides, the “total RNA yield relative to RNA obtained at 1 mM ATP and 0 mM De-P-CoA” value in data set [1] (1 mM ATP) was found to be 110%. For the same molecule, in data set [1] (1 mM ATP, 1 mM GTP, CTP, UTP), the “relative CoA-RNA yield” value is on record as 33%. In addition, in data set [1] (setting [6]), the “CoA-RNA produced by transcription” value is on record as “over 50%” and the “reduction in total RNA yields” value was 20-50%. In addition, the “loaded RNA retained on thiopropyl Sepharose 6B column (CoA-RNA yield)” value in data set [3] was 30-35%.
Take `Cc1cc2nc3c(=O)[nH]c(=O)nc-3n(C[C@H](O)[C@H](O)[C@H](O)COP(=O)(O)OP(=O)(O)OC[C@H]3O[C@@H](n4cnc5c(N)ncnc54)[C@H](O)[C@@H]3O)c2cc1C` [FAD, flavin adenine dinucleotide]: in data set [2], the “relative intensity of N band RNA” value was 30%, the “relative intensity of N+1 band RNA” value is on record as 49%, the “relative intensity of N+2 band RNA” value turned out to be 21% and the “total RNA yields versus standard transcription conditions” value is given as “significantly lower”. Besides, the “effect on total RNA yield” value in data set [2] (setting [5]) was “somewhat inhibitory effect”. In addition, the “enhancement of fluorescence intensity by urea” value in data set [4] (4 M urea) is 1.7 fold. In data set [4] (7 M urea), the “enhancement of fluorescence intensity by urea” value stood at 2.7 fold.
